Results taken from patent publication US8232314B2, “Compounds that protect against sensory hair cell death” (University of Washington, priority 2005, dated 2012).
Entries after “also recorded” stand apart in the source; their conditions may differ.

What was measured:
[1] = test system: lateral line hair cells of zebrafish; assay: Protection of zebrafish lateral line hair cells against neomycin-induced hair cell death; assay type: in vivo, zebrafish (Danio rerio); design: protection of hair cells from neomycin induced hair cell death in the small molecule screen: dose or concentration left out as unconfirmed; settings: for protection of hair cells from neomycin induced hair cell death in the small molecule screen: 5 dpf larvae, pretreated with compound at 10 μm, exposed to neomycin, hair cells evaluated after 1 hour; for long lasting protection, hair cell counts (FM 1-43) after neomycin: 200 μm neomycin, 24 hours post treatment; for protective against toxic effects of neomycin on hair cells (identified by screening): exemplified aminoglycoside (neomycin); for protective effect against neomycin (dose finding): pretreated at 0-200 μM compound, neomycin 200 μM, compared to controls
Method: Zebrafish embryos were produced by paired matings of adult fish maintained at 28.5° C. in the University of Washington zebrafish facility. Beginning at 4 days post fertilization (dpf), larvae were fed live paramecia. Larvae were maintained at a density of 50 per 100 mm^2 petri dish in embryo medium (1 mM MgSO4, 120 μM KH2PO4, 74 μM Na2HPO4, 1 mM CaCl2, 500 μM KCl, […], and 500 μM NaHCO3 in dH2O) in a tissue incubator at 28.5° C. All animal procedures were approved by the University of Washington institutional Animal Care and Use Committee,
(§1) Larvae were placed in a transfer device fashioned from a 50 ml conical tube with one end cut off and a mesh cover at the bottom. FM 1-43 (n-(3-triethylammoniumpropyl)-4-(4-dibutylamino]-styryl)pyridinium dibromide; Molecular Probes, Eugene, Oreg.) labeling of lateral line neuromasts was achieved by immersing free swimming larvae in 3 μM FM 1-43 in embryo medium for 30 seconds followed by 3 rinses in embryo medium. Using this procedure FM 1-43 is restricted to hair cells in neuromasts (Seiler and Nicolson, J Neurobiol (1999) 41:424-34). Yo-Pro-1 (Molecular Probes, Eugene, Oreg.) labeling of hair cell nuclei in lateral line neuromasts was achieved using a similar technique, incubating larvae in 2 μM Yo-Pro-1 in embryo medium for 30 minutes followed by 3 rinses. Using this procedure only the nuclei of hair cells are labeled.
(§2) Zebrafish eggs of the AB/Wik wild-type strain were generated and maintained until 5 days post-fertilization temporally corresponding to the developmental maturation of the lateral line hair cells. 5 day postfertilization larvae were prelabeled with the fluorescent dyes FM 1-43, 3 μM (30 sec), and Yo-Pro-1, 2 μM (30 min) to identify the hair cells. Larvae were arrayed into 96 well plates containing embryo media. Synthetic small molecules from the Chembridge Corporation, San Diego, were transferred into the wells for a final concentration of 10 μM (0.05% DMSO). Following a one hour exposure to the compounds fish were treated with neomycin for an additional hour. Larvae were then analyzed in vivo with an epifluorescent Zeiss Axiovert 200M microscope with automated stage and a 40× objective to determine hair cell viability following neomycin exposure.
Neomycin sulfate from a 50 mM stock solution in dH2O (Sigma) was diluted in embryo medium to final concentrations of 25 μM, 50 μM, 100 μM, 200 μM and 400 μM in each well of a six-well culture plate. Following vital dye staining live free-swimming five dpf larvae were transferred from control (neomycin-free) embryo medium to neomycin-containing medium and incubated for 1 h. For time-lapse imaging, neomycin-containing medium was added directly to the imaging chamber.
In order to identify compounds that protect hair cells of the lateral line from the toxic effects of the aminoglycoside neomycin, 10,960 small molecules were screened. 5 dpf larvae were double labeled with the fluorescent dyes FM 1-43 and Yo-Pro-1, pretreated with the compounds at a dose of 10 μm, exposed to […], and their hair cells evaluated after 1 hour, FIG. 1.
To identify the optimal dose for evaluating the compounds' protective effects, larvae were pretreated with both compounds at 0, 1, 10, 50, 100 and 200 μM, and exposed to neomycin at 200 μM and compared to controls.
The neomycin susceptibility of larvae pretreated with 10 μM of compound F5 and controls at 0, 25, 100, 200 and 400 μm neomycin were compared.
To evaluate the protection conferred by compounds F5 and H10, hair cell counts were compared using the fluorescent dye FM 1-43 to identify hair cells in larvae pretreated with compound and controls, exposed to 200 μm neomycin after 24 hours, 48 hours and 72 hours. […] At 48 hours and beyond the protective effects of compound F5 and H10 cannot be determined as the larvae have repopulated the neuromasts with regenerated hair cells, FIG. 5.

[2] = test system: lateral line hair cells of zebrafish; assay: Protection against cisplatin-induced lateral line hair cell death; assay type: in vivo, zebrafish (Danio rerio); settings: for protective against toxic effects of cisplatin on hair cells (identified by screening): exemplified platinum coordination complex (cisplatin)
Method: as §1
Cisplatin from a 200 mM stock solution in DMSO (Sigma) was diluted in embryo medium to final concentrations of 300 μM, 500 μM, and 1 mM (0.05% DMSO) in each well of a six-well culture plate. Following vital dye staining live free-swimming five dpf larvae were transferred from control (neomycin-free) embryo medium to cisplatin-containing medium and incubated for 3 h.
To determine if compound F5 is protective against the otoxic effects of cisplatin, larvae were pretreated with compound F5 10 μm for 1 hour, exposed the larvae to 0, 300 μM, 500 μM and 1 mM of cisplatin for 3 hours, counted hair cells and compared to untreated controls.

[3] = test system: lateral line hair cells; assay: Mechanotransduction-dependent activity of lateral line hair cells measured by FM 1-43 uptake; assay type: in vivo, zebrafish; settings: pretreated 1 hour at 10 μm, FM 1-43 3 μM for 30 seconds
Method: To test whether compounds F5 and H10 inhibit mechanotransduction-dependent activity of lateral line hair cells, larvae were incubated in the dye FM1-43. Larvae were pretreated with each compound for 1 hour at 10 μm and exposed to FM 1-43, 3 μM, for 30 seconds. […] Neither compound F5 nor compound H10 inhibited the uptake of FM1-43, FIG. 7.

[4] = test system: zebrafish lateral line hair cells; assay: Neomycin-induced hair cell death of zebrafish lateral line hair cells; assay type: in vivo; settings: 5 dpf larvae, 1 hour exposure to 200 μM, FM 1-43 and Yo-Pro-1 labeling
Method: FIGS. 1A and 1B illustrate labeling and neomycin-induced hair cell death of zebrafish lateral line hair cells. FIG. 1A depicts 5 days post fertilization (dpf) larvae hair cells labeled with FM 1-43 (red) to identify the cytoplasm of hair cells and Yo-Pro-1 (green) labeling the nucleus. […] Cytoplasmic (red) and nuclear fragments (green) are visible in FIG. 1B.
as §1
Neomycin sulfate from a 50 mM stock solution in dH2O (Sigma) was diluted in embryo medium to final concentrations of 25 μM, 50 μM, 100 μM, 200 μM and 400 μM in each well of a six-well culture plate. […]

[5] = test system: hair cells; assay: High-throughput screen of FDA approved compound library for protection against aminoglycoside-induced hair cell death; assay type: in vivo, zebrafish; settings: library of 1040 FDA approved compounds, high-throughput assay
Method: as §2
A library of 1040 FDA approved compounds (NINDS Custom Collection II, Microsource, Inc.) were screened using a high-throughput assay.

| Molecule | protective against toxic effects of neomycin on hair cells (identified by screening) [1] | protective against toxic effects of cisplatin on hair cells (identified by screening) [2] | protection against aminoglycoside-induced hair cell death (screen hit) [5] | further results |
| --- | --- | --- | --- | --- |
| CCN1CCc2c(sc(NC(=O)Nc3ccc(Cl)cc3)c2C(N)=O)C1 [Compound F5, 2-({[(4-chlorophenyl)amino]carbonyl}amino)-6-ethyl-4,5,6,7-tetrahydrothieno[2,3-c]pyridine-3-carboxamide] | protective | protective | – | neomycin susceptibility of pretreated larvae versus controls ([1]; 10 μM compound pretreatment, 0, 25, 100, 200 and 400 μm neomycin): less susceptible to neomycin than controls; also recorded: protects lateral line hair cells against neomycin; protection of hair cells from neomycin induced hair cell death in the small molecule screen [1]: protect hair cells from neomycin induced hair cell death; long lasting protection, hair cell counts (FM 1-43) after neomycin [1]: Significant protection; also recorded: protective through 24 hours post neomycin treatment; protective effect against neomycin (dose finding) [1]: protective against neomycin; protection against cisplatin induced hair cell death (hair cell counts) ([2]; pretreated 10 μm for 1 hour, 0, 300 μM, 500 μM and 1 mM cisplatin for 3 hours): significant protection against cisplatin induced hair cell death; also recorded: protective against cisplatin-induced lateral Sine hair cell death; inhibition of FM 1-43 uptake (mechanotransduction-dependent activity) [3]: do not inhibit mechanotransduction-dependent activity; also recorded: do not prevent the rapid uptake of FM1-43 |
| neomycin | – | – | – | hair cell death after neomycin exposure [4]: undergo apoptotic death |
| NC(N)=NC(=O)c1nc(Cl)c(N2CCCCCC2)nc1N [N,N-hexamethyleneamiloride] | – | – | protect against aminoglycoside-induced hair cell death | – |
| COc1ccccc1OCCNCC(O)COc1cccc2[nH]c3ccccc3c12 (centres unmarked) [Carvedilol] | – | – | protect against aminoglycoside-induced hair cell death | – |
| Cc1cccc(C(=O)NC(NC(=S)Nc2sc3c(c2C(N)=O)CCCC3)C(Cl)(Cl)Cl)c1 (centres unmarked) [Compound A, 2-{{({2,2,2-trichloro-1-[(3-methylbenzoyl)amino]ethyl}amino)carbonothioyl]amino}-4,5,6,7-tetrahydro-1-benzothiophene-3-carboxamide] | protective | protective | – | – |
| NC(=O)c1c(NC(=O)CN2CCCCC2)sc2c1CCCC2 [Compound D, 2-[(1-piperidinylacetyl)amino]-4,5,6,7-tetrahydro-1-benzothiophene-3-carboxamide] | protective | protective | – | – |
| Nc1c2c(nc3ccccc13)CCCC2 [9-amino-1,2,3,4-tetrahydroacridine] | – | – | protect against aminoglycoside-induced hair cell death | – |
| CC(COc1ccccc1)N(CCCl)Cc1ccccc1 (centres unmarked) [Phenoxybenzamine] | – | – | protect against aminoglycoside-induced hair cell death | – |
| NC(=O)c1c(NC(=O)Nc2ccc(Cl)cc2)sc2c1CCCC2 [Compound B, 2-({[(4-chlorophenyl)amino]carbonyl}amino)-4,5,6,7-tetrahydro-1-benzothiophene-3-carboxamide] | protective | protective | – | – |
| CCN(CC)CCOC(=O)C(c1ccccc1)C1CCCCC1 (centres unmarked) [Drofenine] | – | – | protect against aminoglycoside-induced hair cell death | – |
| NC(=O)c1c(NC(=O)c2ccc(Cl)c([N+](=O)[O-])c2)sc2c1CCCC2 [Compound C, 2-[(4-chloro-3-nitrobenzoyl)amino]-4,5,6,7-tetrahydro-1-benzothiophene-3-carboxamide] | protective | protective | – | – |
| COc1ccc(C(=O)NC(NC(=S)Nc2sc3c(c2C(N)=O)CCCC3)C(Cl)(Cl)Cl)cc1 (centres unmarked) [Compound H10, 2-{[({2,2,2-trichloro-1-[(4-methoxybenzoyl)amino]ethyl}amino)carbonothioyl]amino}-4,5,6,7-tetrahydro-1-benzothiophene-3-carboxamide] | protective | protective | – | protection of hair cells from neomycin induced hair cell death in the small molecule screen [1]: protect hair cells from neomycin induced hair cell death; long lasting protection, hair cell counts (FM 1-43) after neomycin [1]: Significant protection; also recorded: protective through 24 hours post neomycin treatment; optimal protective dose against 200 μM neomycin ([1]; larvae pretreated at 0, 1, 10, 50, 100 and 200 μM compound, 200 μM neomycin): 1 µM; protective effect against neomycin (dose finding) [1]: protective against neomycin; inhibition of FM 1-43 uptake (mechanotransduction-dependent activity) [3]: do not inhibit mechanotransduction-dependent activity; also recorded: do not prevent the rapid uptake of FM1-43 |
